Laboratory results from US11912682B2, “Isoindolinone compounds” (Monte Rosa Therapeutics, Inc., priority 2021, dated 2024).

Target: GSPT1 (Homo sapiens (Human), UniProt P15170+Q96SW2)
Test: immunofluorescence assay for GSPT1 degradation in CAL-51 cells (Example 10)
Format: cell-based
Conditions: CAL-51 cells, 6 h; read-out: IF Class (GSPT1 degradation DC50)
Description: The representative compounds were tested in an immunofluorescence assay for their activity to degrade GSPT1. […] Compounds were stored at 10 mM DMSO stocks. […] Cells were subsequently rinsed with PBS and fixed in 10% Formalin solution (50 μl, Sigma HT5011)) for 20 mins at room temperature. […] Following three further PBS washes, 50 μL blocking buffer (1% BSA, Sigma A4503, in PBS) was added for 45 min for signal-to noise reduction. Primary antibody (human GSPT1, Sigma HPA052488) was diluted in blocking buffer (dil.1/300, 35 μL/well) and incubated with the cells overnight at 4° C. […] After three final PBS washes, samples were conserved in 100 μL PBS in the dark, until measurement. Image acquisition was performed on the Operetta High-Content Imager (Perkin-Elmer). […] For the determination of GSPT1 DC50 values, a custom algorithm implemented in the PerkinElmer image analysis software Harmony-Acapella® was developed. After user-defined setting of adjustment parameters, the analysis was run identically without human intervention for all image fields. DAPI staining of the nuclei was used to determine the location of cells using standard nuclei detection modules. Segmentation artifacts were removed by threshold-based filters for area, roundness and intensity. The outline of the cells was determined analogously from the sum of the normalized, smoothed DAPI and Actin channel, starting from each nucleus. […] GSPT1 degradation (DC50) was calculated after normalization to controls and data import in CDD vault Database, using non-linear regression.

GSPT1, sequence (P15170 whole entry): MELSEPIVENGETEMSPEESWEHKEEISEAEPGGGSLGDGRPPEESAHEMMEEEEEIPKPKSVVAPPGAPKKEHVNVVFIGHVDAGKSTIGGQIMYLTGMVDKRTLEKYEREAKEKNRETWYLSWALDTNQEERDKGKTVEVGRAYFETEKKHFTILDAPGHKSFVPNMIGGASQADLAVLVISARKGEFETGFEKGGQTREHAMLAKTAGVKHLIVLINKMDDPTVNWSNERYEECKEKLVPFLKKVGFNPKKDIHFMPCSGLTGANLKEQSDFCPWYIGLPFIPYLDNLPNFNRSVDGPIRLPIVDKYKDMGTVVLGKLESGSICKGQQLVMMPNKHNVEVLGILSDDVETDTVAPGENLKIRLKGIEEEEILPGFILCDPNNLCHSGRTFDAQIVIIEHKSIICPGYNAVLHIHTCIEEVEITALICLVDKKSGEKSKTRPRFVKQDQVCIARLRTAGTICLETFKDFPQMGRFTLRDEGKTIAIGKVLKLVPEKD
GSPT1, sequence (Q96SW2 whole entry): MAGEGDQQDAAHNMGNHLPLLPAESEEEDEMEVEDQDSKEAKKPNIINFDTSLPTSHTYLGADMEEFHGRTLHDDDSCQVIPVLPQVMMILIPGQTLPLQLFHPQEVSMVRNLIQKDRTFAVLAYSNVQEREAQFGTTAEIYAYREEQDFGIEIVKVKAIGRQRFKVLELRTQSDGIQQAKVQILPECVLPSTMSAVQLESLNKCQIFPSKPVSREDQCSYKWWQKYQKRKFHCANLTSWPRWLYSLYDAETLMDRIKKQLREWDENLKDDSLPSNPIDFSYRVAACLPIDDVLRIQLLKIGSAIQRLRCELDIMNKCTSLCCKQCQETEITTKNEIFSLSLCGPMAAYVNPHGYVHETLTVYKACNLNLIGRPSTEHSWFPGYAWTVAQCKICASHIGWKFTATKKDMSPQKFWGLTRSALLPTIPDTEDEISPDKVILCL
GSPT1, sequence (Q16531 2-1140 partner): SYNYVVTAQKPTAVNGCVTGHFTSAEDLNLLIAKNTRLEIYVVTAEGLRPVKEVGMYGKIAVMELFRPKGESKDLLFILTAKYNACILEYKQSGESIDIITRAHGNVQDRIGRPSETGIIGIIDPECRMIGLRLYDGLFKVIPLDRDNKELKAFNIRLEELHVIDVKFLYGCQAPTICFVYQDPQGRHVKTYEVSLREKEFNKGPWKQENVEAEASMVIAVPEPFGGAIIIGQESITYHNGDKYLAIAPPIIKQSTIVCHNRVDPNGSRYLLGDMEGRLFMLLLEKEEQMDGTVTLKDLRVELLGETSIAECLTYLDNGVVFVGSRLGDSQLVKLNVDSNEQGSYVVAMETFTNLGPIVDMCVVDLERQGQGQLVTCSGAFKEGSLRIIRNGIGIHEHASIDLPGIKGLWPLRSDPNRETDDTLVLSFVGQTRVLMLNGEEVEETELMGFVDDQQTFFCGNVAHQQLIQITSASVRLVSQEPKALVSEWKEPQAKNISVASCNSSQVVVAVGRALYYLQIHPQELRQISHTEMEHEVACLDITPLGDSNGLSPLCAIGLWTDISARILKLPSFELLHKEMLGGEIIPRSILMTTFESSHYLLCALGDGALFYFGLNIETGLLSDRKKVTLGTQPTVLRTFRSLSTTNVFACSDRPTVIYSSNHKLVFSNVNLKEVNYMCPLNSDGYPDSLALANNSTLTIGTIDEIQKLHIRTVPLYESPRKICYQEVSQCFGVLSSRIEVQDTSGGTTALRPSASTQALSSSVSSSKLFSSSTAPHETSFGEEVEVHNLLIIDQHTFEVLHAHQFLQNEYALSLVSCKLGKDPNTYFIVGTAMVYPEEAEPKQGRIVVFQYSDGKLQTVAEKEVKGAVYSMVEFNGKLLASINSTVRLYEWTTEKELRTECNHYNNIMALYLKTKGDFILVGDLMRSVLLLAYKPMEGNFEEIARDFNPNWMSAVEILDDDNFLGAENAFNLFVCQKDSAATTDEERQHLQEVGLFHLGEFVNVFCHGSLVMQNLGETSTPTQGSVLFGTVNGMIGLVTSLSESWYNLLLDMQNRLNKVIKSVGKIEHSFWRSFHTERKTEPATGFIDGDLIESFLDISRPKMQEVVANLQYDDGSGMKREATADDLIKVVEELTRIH

Row | SMILES | DC50
1 | O=C1CCC(N2Cc3ccc(COC(=O)Nc4cc(F)c(OC(F)F)c(F)c4)cc3C2=O)C(=O)N1 (stereo not shown) [Compound 206, (2-(2,6-dioxopiperidin-3-yl)-3-oxoisoindolin-5-yl) methyl (4-(difluoromethoxy)-3,5-difluorophenyl)carbamate] | 30 to 300 nM
2 | O=C1CCC(N2Cc3ccc(COC(=O)Nc4cc(C5CC5)ccc4F)cc3C2=O)C(=O)N1 (stereo not shown) [Compound 207, (2-(2,6-dioxopiperidin-3-yl)-3-oxoisoindolin-5-yl)methyl (5-cyclopropyl-2-fluorophenyl) carbamate] | 30 to 300 nM
3 | O=C1CCC(N2Cc3ccc(COC(=O)Nc4ccc(C(O)C(F)(F)F)cc4)cc3C2=O)C(=O)N1 (stereo not shown) [Compound 209, (2-(2,6-dioxopiperidin-3-yl)-3-oxoisoindolin-5-yl)methyl (4-(2,2,2-trifluoro-1-hydroxyethyl)phenyl) carbamate] | > 300 nM
4 | Cc1cc(F)c(NC(=O)OCc2ccc3c(c2)C(=O)N(C2CCC(=O)NC2=O)C3)c(F)c1Cl (stereo not shown) [Compound 211, (2-(2,6-dioxopiperidin-3-yl)-3-oxoisoindolin-5-yl)methyl (3-chloro-2,6-difluoro-4-methylphenyl)carbamate] | 30 to 300 nM
5 | Cc1cc(F)c(NC(=O)OCc2ccc3c(c2)C(=O)N(C2CCC(=O)NC2=O)C3)cc1F (stereo not shown) [Compound 213, (2-(2,6-dioxopiperidin-3-yl)-3-oxoisoindolin-5-yl)methyl (2,5-difluoro-4-methylphenyl)carbamate] | > 300 nM
6 | O=C1CCC(N2Cc3ccc(COC(=O)Nc4cccc(C5CC5)c4)cc3C2=O)C(=O)N1 (stereo not shown) [Compound 216, (2-(2,6-dioxopiperidin-3-yl)-3-oxoisoindolin-5-yl)methyl (3-cyclopropylphenyl)carbamate] | < 30 nM
7 | O=C1CCC(N2Cc3ccc(COC(=O)NC45CC(C(F)F)(C4)C5)cc3C2=O)C(=O)N1 (stereo not shown) [Compound 219, (2-(2,6-dioxopiperidin-3-yl)-3-oxoisoindolin-5-yl)methyl (3-(difluoromethyl)bicyclo[1.1.1]pentan-1-yl) carbamate] | > 300 nM
8 | CC(C)(C)Oc1ccc(F)c(NC(=O)OCc2ccc3c(c2)C(=O)N(C2CCC(=O)NC2=O)C3)c1 (stereo not shown) [Compound 222, (2-(2,6-dioxopiperidin-3-yl)-3-oxoisoindolin-5-yl)methyl (5-(tert-butoxy)-2-fluorophenyl)carbamate] | 30 to 300 nM
9 | CCCOc1ccc(F)c(NC(=O)OCc2ccc3c(c2)C(=O)N(C2CCC(=O)NC2=O)C3)c1 (stereo not shown) [Compound 226, (2-(2,6-dioxopiperidin-3-yl)-3-oxoisoindolin-5-yl)methyl (2-fluoro-5-propoxyphenyl)carbamate] | 30 to 300 nM
10 | CCOc1cc(NC(=O)OCc2ccc3c(c2)C(=O)N(C2CCC(=O)NC2=O)C3)c(F)cc1C (stereo not shown) [Compound 228] | < 30 nM
11 | C[C@@H]1CCCN1c1cnc(NC(=O)OCc2ccc3c(c2)C(=O)N(C2CCC(=O)NC2=O)C3)c(F)c1 (stereo partly drawn) [Compound 232, (2-(2,6-dioxopiperidin-3-yl)-3-oxoisoindolin-5-yl)methyl (3-fluoro-5-((R)-2-methylpyrrolidin-1-yl)pyridin-2-yl)carbamate] | 30 to 300 nM
12 | Cc1cc(F)c(NC(=O)OCc2ccc3c(c2)C(=O)N(C2CCC(=O)NC2=O)C3)cc1C(F)(F)F (stereo not shown) [Compound 233] | 30 to 300 nM
13 | CC(F)(F)c1ccc(F)c(NC(=O)OCc2ccc3c(c2)C(=O)N(C2CCC(=O)NC2=O)C3)c1 (stereo not shown) [Compound 234] | > 300 nM
14 | CC(C)(C)c1ccc(F)c(NC(=O)OCc2ccc3c(c2)C(=O)N(C2CCC(=O)NC2=O)C3)c1 (stereo not shown) [Compound 235] | 30 to 300 nM
15 | CC1(c2ccc(NC(=O)OCc3ccc4c(c3)C(=O)N(C3CCC(=O)NC3=O)C4)cc2Cl)COC1 (stereo not shown) [Compound 236, (2-(2,6-dioxopiperidin-3-yl)-3-oxoisoindolin-5-yl)methyl (3-chloro-4-(3-methyloxetan-3-yl)phenyl)carbamate] | < 30 nM
16 | Cc1cc(NC(=O)OCc2ccc3c(c2)C(=O)N(C2CCC(=O)NC2=O)C3)ncc1N1CCC[C@H]1C (stereo partly drawn) [Compound 237, (2-(2,6-dioxopiperidin-3-yl)-3-oxoisoindolin-5-yl)methyl (4-methyl-5-((R)-2-methylpyrrolidin-1-yl)pyridin-2-yl)carbamate] | 30 to 300 nM
17 | O=C1CCC(N2Cc3ccc(COC(=O)Nc4ccc(C(O)C(F)(F)F)nc4)cc3C2=O)C(=O)N1 (stereo not shown) [Compound 238] | > 300 nM

More lines, now with the values ahead:

Row | DC50 | SMILES
18 | > 300 nM | Cc1cc(F)c(NC(=O)OCc2ccc3c(c2)C(=O)N(C2CCC(=O)NC2=O)C3)cc1C (stereo not shown) [Compound 208, (2-(2,6-dioxopiperidin-3-yl)-3-oxoisoindolin-5-yl)methyl (2-fluoro-4,5-dimethylphenyl)carbamate]
19 | < 30 nM | O=C1CCC(N2Cc3ccc(COC(=O)Nc4cc(F)c5c(c4)CCO5)cc3C2=O)C(=O)N1 (stereo not shown) [Compound 212, (2-(2,6-dioxopiperidin-3-yl)-3-oxoisoindolin-5-yl)methyl (7-fluoro-2,3-dihydrobenzofuran-5-yl)carbamate]
20 | > 300 nM | O=C1CCC(N2Cc3ccc(COC(=O)NC45CC(N6CCOCC6)(C4)C5)cc3C2=O)C(=O)N1 (stereo not shown) [Compound 215, (2-(2,6-dioxopiperidin-3-yl)-3-oxoisoindolin-5-yl)methyl (3-morpholinobicyclo[1.1.1]pentan-1-yl)carbamate]
21 | < 30 nM | CC(C)c1cccc(NC(=O)OCc2ccc3c(c2)C(=O)N(C2CCC(=O)NC2=O)C3)c1 (stereo not shown) [Compound 217, (2-(2,6-dioxopiperidin-3-yl)-3-oxoisoindolin-5-yl)methyl (3-isopropylphenyl)carbamate]
22 | < 30 nM | CCc1cccc(NC(=O)OCc2ccc3c(c2)C(=O)N(C2CCC(=O)NC2=O)C3)c1 (stereo not shown) [Compound 220, (2-(2,6-dioxopiperidin-3-yl)-3-oxoisoindolin-5-yl)methyl (3-ethylphenyl)carbamate]
23 | 30 to 300 nM | CC(C)Oc1ccc(F)c(NC(=O)OCc2ccc3c(c2)C(=O)N(C2CCC(=O)NC2=O)C3)c1 (stereo not shown) [Compound 221, (2-(2,6-dioxopiperidin-3-yl)-3-oxoisoindolin-5-yl)methyl (2-fluoro-5-isopropoxyphenyl)carbamate]
24 | > 300 nM | CCOc1ccc(F)c(NC(=O)OCc2ccc3c(c2)C(=O)N(C2CCC(=O)NC2=O)C3)c1 (stereo not shown) [Compound 223, (2-(2,6-dioxopiperidin-3-yl)-3-oxoisoindolin-5-yl)methyl (5-ethoxy-2-fluorophenyl)carbamate]
25 | > 300 nM | O=C1CCC(N2Cc3ccc(COC(=O)NC45C6C7C4C4C5C6C74c4ccccc4)cc3C2=O)C(=O)N1 (stereo not shown) [Compound 225, (2-(2,6-dioxopiperidin-3-yl)-3-oxoisoindolin-5-yl)methyl (4-phenylcuban-1-yl)carbamate]
26 | > 300 nM | O=C1CCC(N2Cc3ccc(COC(=O)Nc4cc(OC(F)F)c(F)cn4)cc3C2=O)C(=O)N1 (stereo not shown) [Compound 227, (2-(2,6-dioxopiperidin-3-yl)-3-oxoisoindolin-5-yl)methyl (4-(difluoromethoxy)-5-fluoropyridin-2-yl)carbamate]
27 | 30 to 300 nM | COc1cc(NC(=O)OCc2ccc3c(c2)C(=O)N(C2CCC(=O)NC2=O)C3)c(F)cc1C (stereo not shown) [Compound 229, (2-(2,6-dioxopiperidin-3-yl)-3-oxoisoindolin-5-yl)methyl (2-fluoro-5-methoxy-4-methylphenyl)carbamate]
28 | < 30 nM | Cc1cc(F)c(NC(=O)OCc2ccc3c(c2)C(=O)N(C2CCC(=O)NC2=O)C3)cc1OC(C)C (stereo not shown) [Compound 230, (2-(2,6-dioxopiperidin-3-yl)-3-oxoisoindolin-5-yl)methyl (2-fluoro-5-isopropoxy-4-methylphenyl)carbamate]
29 | < 30 nM | CCCOc1cc(NC(=O)OCc2ccc3c(c2)C(=O)N(C2CCC(=O)NC2=O)C3)c(F)cc1C (stereo not shown) [Compound 231, (2-(2,6-dioxopiperidin-3-yl)-3-oxoisoindolin-5-yl)methyl (2-fluoro-4-methyl-5-propoxyphenyl)carbamate]
30 | < 30 nM | O=C1CCC(N2Cc3ccc(COC(=O)Nc4cccc(Cl)c4)cc3C2=O)C(=O)N1 (stereo not shown) [Compound 239, (2-(2,6-dioxopiperidin-3-yl)-3-oxoisoindolin-5-yl)methyl (3-chlorophenyl)carbamate]
31 | 30 to 300 nM | CC1(c2ccc(NC(=O)OCc3ccc4c(c3)C(=O)N(C3CCC(=O)NC3=O)C4)cc2F)COC1 (stereo not shown) [Compound 240, (2-(2,6-dioxopiperidin-3-yl)-3-oxoisoindolin-5-yl)methyl (3-fluoro-4-(3-methyloxetan-3-yl)phenyl)carbamate]
